Experimental findings from US9370186B2 (priority 2012, dated 2016) are described below.

SMILES strings stand for the structures. Values after ≈ are worked out from the molar mass of the structure shown. Like-named read-outs stand apart in the source and are kept apart here.

The subject of assay [1] is Phytophthora infestans. Description: whole plant or invertebrate. The class given is in vivo. The settings on record: for Practical dose for 70% efficacy: EC70, compound alone, preventive 24 h, potato leaf discs; for EC50: Phytophthora infestans, in Solanum tuberosum, foliar, 24 h, read-out: Practical dose for 50% efficacy.
In assay [2] the test system is Phytophthora infestans. It counts as in vivo. The settings on record: tomatoes, 3 days after inoculation.

As to `CSC1=N[C@@](C)(c2ccccc2)C(=O)N1Nc1ccccc1` [fenamidone, (S)-3,5-dihydro-5-methyl-2-(methylthio)-5-phenyl-3-(phenylamino)-4H-imidazol-4-one], in the assay on Phytophthora infestans [1], the “Practical dose for 70% efficacy” value is 9.764 mg a.i./L. Besides, the EC50 with Phytophthora infestans [1] came to 6.26 µg/mL (≈ 20.1 µM). Also, the “Efficacy (%) fenamidone alone” value in the assay with Phytophthora infestans [1] (fenamidone 0.5 mg a.i./L) was determined as 0%; in the assay on Phytophthora infestans [1] (fenamidone 1 mg a.i./L), 0%; in the assay with Phytophthora infestans [1] (fenamidone 2 mg a.i./L) it was 5%; in the assay on Phytophthora infestans [1] (fenamidone 4 mg a.i./L) it was 29%; in the assay on Phytophthora infestans [1] (fenamidone 8 mg a.i./L) it was 83%; in the assay on Phytophthora infestans [1] (fenamidone 16 mg a.i./L), 82%. Further, the “Efficacy (%) fenamidone alone” value in the assay on Phytophthora infestans [1] (fenamidone 50 mg a.i./L) turned out to be 91%. Besides, the “Efficacy in % found” value in the assay on Phytophthora infestans [2] (0.5 ppm a.i.) is listed as 28%.
Consider `CCNc1nc(CC)c(C(=O)NC(C#N)c2cccs2)s1` (centres unmarked) [ethaboxam, N-(cyano-2-thienylmethyl)-4-ethyl-2-(ethylamino)-5-thiazolcarboxamide], for which the “Practical dose for 70% efficacy” value in the assay on Phytophthora infestans [1] is given as 27.820 mg a.i./L. Further, the EC50 in the assay on Phytophthora infestans [1] was determined as 15.3 µg/mL (≈ 47.7 µM). The “Efficacy (%) ethaboxam alone” value in the assay on Phytophthora infestans [1] (ethaboxam 0.75 mg a.i./L) is 0%; in the assay with Phytophthora infestans [1] (ethaboxam 1.5 mg a.i./L), 0%; in the assay with Phytophthora infestans [1] (ethaboxam 3 mg a.i./L) it was 5%; in the assay with Phytophthora infestans [1] (ethaboxam 6 mg a.i./L), 13%; in the assay on Phytophthora infestans [1] (ethaboxam 12 mg a.i./L) it was 67%; in the assay on Phytophthora infestans [1] (ethaboxam 24 mg a.i./L), 73%. In addition, the “Efficacy (%) ethaboxam alone” value in the assay with Phytophthora infestans [1] (ethaboxam 75 mg a.i./L) worked out at 75%. Further, the “Efficacy in % found” value in the assay with Phytophthora infestans [2] (5 ppm a.i.) was found to be 40%.
